Results taken from patent publication EP1121937A1, “VACCINE PR[…]” (THE KITASATO INSTITUTE, priority 1998, dated 2000).
Entries after “also recorded” stand apart in the source; their conditions may differ.

Tests used:
[1] = tested on: pertussis-diphtheria-tetanus combined vaccine; parameters: species or system BALB/c mice; conditions: mouse, in vivo
[2] = tested on: pertussis-diphtheria-tetanus combined vaccine; parameters: species or system BALB/c mice; conditions: mouse, in vivo; remark: listed apart in the source
sheep erythrocytes = test: Hemolytic test for active saponins (Example 6); type: cell-based; conditions: 30 minutes at room temperature, solutions 3.125 to 200 µg/ml in PBS, E and F judged at a final concentration of 200 µg/ml
Procedure: It has been known that saponins generally have the hemolytic activity. Thus, the inventive active saponins were tested for the hemolytic activity as follows. The sheep erythrocytes were washed 3 times with phosphate buffered saline (PBS), and then diluted 2.5 times with the same buffer for the subsequent experiment. Aliquots (100 µl ) of solutions of onjisaponins A, E, F, and G (200, 100, 50, 25, 6.25, 3.125 µg/ml-PBS solution) were added to V-shaped wells of a 96-well micro-plate, and 25 µl of sheep erythrocyte suspension was added to each well. The plate was allowed to stand still at room temperature for 30 minutes. Then, the samples were centrifuged at 1000 rpm for 5 minutes. An aliquot (50 µl) of the resulting supernatant was transferred to a flat-bottomed well of a plate and the absorbance thereof was measured at 490 nm in a micro-plate reader (Model 450, BioRad Co.). The hemolytic activity of test compound was evaluated based on the increase in absorbance at 490 nm, which results from the release of hemoglobin from sheep erythrocytes.

[3] = tested on: influenza HA vaccine (A/Beijing/262/95 strain); parameters: species or system BALB/c mice; conditions: mouse, in vivo
[4] = tested on: influenza HA vaccine (A/PR/8/34 strain); parameters: species or system BALB/c mice; conditions: mouse, in vivo
[5] = tested on: influenza HA vaccine (A/Beijing/262/95 strain); type: in vivo, BALB/c mice
cellular immunity = conditions: background art; cited from earlier work
[6] = background art; cited from earlier work

Substance	titer of anti-DT-IgA antibody in the nasal irrigation liquid [1]	titer of anti-PT-IgA antibody in the nasal irrigation liquid [1]	titer of anti-TT-IgA antibody in the nasal irrigation liquid [1]	titers of anti-PT-IgA, anti-DT-IgA and anti-TT-IgA antibodies in the nasal irrigation liquid compared with the group given vaccine and CTB [1]	titer of anti-DT-IgG antibody in the serum [2]	titer of anti-PT-IgG antibody in the serum [2]	titer of anti-TT-IgG antibody in the serum [2]	hemolytic activity (release of hemoglobin, absorbance at 490 nm) (sheep erythrocytes)	HI antibody titer in the serum compared with HA vaccine alone [3]	adjuvant activity (serum HI antibody titer) compared with the same amount of CTB [3]	anti-HA-IgA antibody titer in the nasal irrigation liquid [4]	anti-HA-IgG antibody titer in the nasal irrigation liquid [4]	adjuvant activity of enhancing the titer of anti-HA-IgA antibody compared with the same amount of CTB ([5]; mouse, in vivo)	anti-HA-IgA antibody titer in the nasal irrigation liquid ([5]; secondary response, […])	anti-HA-IgG antibody titer in the nasal irrigation liquid ([5]; secondary response, […])	titers of anti-PT-IgG, anti-DT-IgG and anti-TT-IgG antibodies in the serum compared with the group given vaccine and CTB [2]	anti-HA-IgA and IgG antibody titers in the nasal irrigation liquid compared with the group given vaccine in combination with CTB [4]	induction of cellular immunity (cellular immunity)	solubility [6]
onjisaponin F	increased to highest levels	increased to highest levels	increased to highest levels	comparable	also elevated	also elevated	also elevated	substantially no hemolytic activity; also recorded: low hemolytic activity; also recorded: hardly recognized	significantly increased	slightly weaker	increased the production	increased the production	lower	significantly increased	significantly increased				
onjisaponin A	increased to highest levels	increased to highest levels	increased to highest levels	comparable	increased to highest levels	increased to highest levels	increased to highest levels	not acceptable; also recorded: hemolysis clearly occurred			increased to the highest level	increased to the highest level				comparable	comparable		
onjisaponin E								substantially no hemolytic activity; also recorded: low hemolytic activity; also recorded: hardly recognized			increased only the production of anti-HA-IgA to a statistically significant level	increased only the production of anti-HA-IgA							
onjisaponin G	also elevated		also elevated		increased only anti-TT-IgG antibody titer	increased only anti-TT-IgG antibody titer	increased only anti-TT-IgG antibody titer to a statistically significant level	low hemolytic activity; also recorded: moderate degree of hemolysis			increased only the production of anti-HA-IgA to a statistically significant level	increased only the production of anti-HA-IgA							
QS-21																		strongly induces the cellular immunity	too low
